Laboratory results taken from PMC5983277 (Marine Drugs, 2018).
Read-outs that look alike come from different tables or passages of the source.

How the values were obtained:
Eel AChE = tested on: Eel AChE; design: key to mode of AChE inhibition: NCI: non competitive inhibition; CI: competitive inhibition; ND: non described; conditions: cited from earlier work; for IC50: read-out: AChE inhibition IC50
Human recombinant AchE = tested on: Human recombinant AchE; design: method as in Sirimangkalakitti et al. 2015 [32]; key to mode of AChE inhibition: NCI: non competitive inhibition; CI: competitive inhibition; ND: non described; conditions: ref Sirimangkalakitti et al. 2015 [32], cited from earlier work; for IC50: read-out: AChE inhibition IC50
[1] = tested on: human epidermoid carcinoma cells (KB); assay: cells; conditions: Homo sapiens, KB, 72 h, read-out: percentage of inhibition of cellular proliferation of KB cells
Method: (§1) The human cell line KB originated from the National Cancer Institute (NCI) and was grown in Dulbecco’s Modified Eagle Medium (D-MEM) medium supplemented with 10% foetal calf serum, in the presence of penicillin, streptomycin, and fungizone in a 75 mL flask under 5% CO2. A total of 600 cells were plated in 96-well tissue culture plates in 200 µL of medium and treated 24 h later with 2 μL of stock solution of compounds dissolved in DMSO using a Biomek 3000 (Beckman-Coulter, Brea, CA, USA). Controls received the same volume of DMSO (1% final volume). After 72 h exposure, cell titer 96 Aqueous One solution (Promega, Madison, WI, USA) was added and incubated for 3 h at 37 °C: the absorbance was monitored at 490 nm, and results were expressed as the inhibition of cell proliferation calculated as the ratio [(1 − (OD490 treated/OD490 control)) × 100] in triplicate experiments.

Insect recombinant AChE = biological target: Insect recombinant AChE; design: method as in Sepcic et al. 2001 [33]; key to mode of AChE inhibition: NCI: non competitive inhibition; CI: competitive inhibition; ND: non described; conditions: ref Sepcic et al. 2001 [33], cited from earlier work
[2] = tested on: Poecilia reticulata (guppy); assay: Guppy acute toxicity bioassay (bathing, 1 h); assay type: in vivo; conditions: guppies
Method: (§2) The screening of our French Polynesian sponges extract library was performed on acetylcholinesterase inhibitor (AChE) in the aim to investigate a possible chemical defense of sessile organisms on the reef against fishes, their main predators. […] In order to try to evaluate the effect of psammaplysene D in the environment, it was further tested on fresh water fish (guppy, Poecilia reticulata) and reef fish (Acanthurus triostegus) feeding experiment using bathing with or without the bioactive compound. Guppies are fed with commercial flakes, but the wild reef fish feed on natural coral heads, and their appetite evaluated by counting the bites on the corals. Two experiments were run on guppies using Suberea ianthelliformis crude extract and purified psammaplysene D (1): an acute toxicity bioassay (100 μg/mL of crude extract or purified psammaplysene D (1), 1 h) and a chronic toxicity (5 μg/mL of crude extract or 1 μg/mL of purified psammalysene D (1), 72 h).
5 to 8 cm long guppies (Poecilia reticulata) were collected at night in a private fresh water pool at Papara (Tahiti, French Polynesia) and immediately acclimated at the laboratory temperature (25 °C). After acclimatization, fishes were parted in two 2 L tanks: one for the control group treated with solvent (N = 5). Another experiment was performed using a 1 h treatment with 100 μg/mL of crude extract of the sponge or purified psammaplysene D (1) to check their acute toxicity.

[3] = tested on: Acanthurus triostegus (reef fish); assay: Reef fish feeding behavior experiment (bites on coral rubble); assay type: in vivo; conditions: for number of bites on coral pieces per recruit and per hour (in words): A. triostegus recruits (larvae undergoing metamorphosis), 1 μg/mL in tank, 72 h, p < 0.01
Method: Manini (Acanthurus triostegus) were caught during new moon nights on the foreshore puddles at Tema’e public beach. Recruits (fish larvae undergoing metamorphosis) and juveniles (larvae after the recruits stage) were collected and immediately used for the experiments. Natural lagoon sea-water was used and UV-sterilized prior use. Three conditions were tested on three groups: control, solvent, 1 μg/mL sponge extract treatment, with 4 or 5 fishes in each 3 L tank. The fishes were exposed under semi-static system for 72 h, the experimental solutions were renewed every 24 h to maintain clean experimental conditions. The experiments were performed with fish recruits and juveniles. Rubbles were disposed in each aquarium 1 h/day during 3 days. Feeding behavior experiment consists in counting the overall number of bites on those rubbles in each aquarium. Six videos sequences (N = 6) of 5 or 10 min per aquarium and per day were analyzed. Results are expressed in number of bites per fish and per hour.
All the values of AChE activity are represented in a boxplot distribution, because of non-normality of variable distribution (N = 4 or 5). The significant differences between controls and treatments (p-value p < 0.05) were analyzed with non-parametric test of Wilcoxon Mann Whitney. In feeding deterrent assay, pairs significant differences between different conditions (p < 0.05) were tested with non-parametric Kruskal Wallis test. All statistical assays were executed using R software (R-3.2.0, The R Foundation for Statistical Computing, Vienna, Austria).

in vitro = conditions: human
Method: as §1

[4] = tested on: Poecilia reticulata (guppy); assay: Guppy chronic (sub-lethal) exposure, feeding on flakes; assay type: in vivo; conditions: guppies, sub-lethal dose 1 μg/mL purified compound, 24 h exposure (72 h experiment)
Method: as §2
5 to 8 cm long guppies (Poecilia reticulata) were collected at night in a private fresh water pool at Papara (Tahiti, French Polynesia) and immediately acclimated at the laboratory temperature (25 °C). After acclimatization, fishes were parted in two 2 L tanks: one for the control group treated with solvent (N = 5). […]

[5] = biological target: T1, acetylcholinesterase (AChE) (Homo sapiens, UniProt P22303); assay: Acetylcholinesterase inhibition assay (Ellman's colorimetric method) and kinetic study; assay type: biochemical
T1 construct: purchased Sigma-Aldrich
T1 sequence (P22303 32-614, species assumed): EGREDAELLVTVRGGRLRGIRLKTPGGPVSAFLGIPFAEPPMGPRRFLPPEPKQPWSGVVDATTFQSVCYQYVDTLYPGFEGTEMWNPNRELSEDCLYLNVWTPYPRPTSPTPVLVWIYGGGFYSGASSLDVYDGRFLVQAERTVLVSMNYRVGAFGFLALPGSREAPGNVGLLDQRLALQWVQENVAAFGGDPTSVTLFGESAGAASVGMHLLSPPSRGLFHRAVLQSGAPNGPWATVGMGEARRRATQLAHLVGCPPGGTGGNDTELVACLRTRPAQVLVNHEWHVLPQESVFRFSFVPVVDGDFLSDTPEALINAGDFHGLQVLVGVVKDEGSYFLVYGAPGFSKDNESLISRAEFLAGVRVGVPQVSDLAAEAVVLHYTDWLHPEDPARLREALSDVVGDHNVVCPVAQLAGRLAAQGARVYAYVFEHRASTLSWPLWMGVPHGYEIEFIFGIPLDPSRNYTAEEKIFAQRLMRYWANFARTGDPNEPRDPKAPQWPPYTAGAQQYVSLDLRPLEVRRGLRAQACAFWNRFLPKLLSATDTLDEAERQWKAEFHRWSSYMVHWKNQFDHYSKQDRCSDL
Method: The crude extract of the sponge and the purified psammaplysene D (1) were dissolved in DMSO at 10 mg/mL, stored at −20 °C and diluted subsequently 100 times in H2O prior testing. Determination of AChE-inhibitory activity was measured according the Ellman’s colorimetric method, in 96-well tissue culture plates. All reagents, buffers and salts were purchased from Sigma-Aldrich (Saint-Louis, MO, USA). Galantamine was used as a positive control for each analysis. Solvent controls received the same volume of water. After a 30 min incubation at 25 °C in the dark, absorbance was monitored at λ = 405 nm. Results were expressed as the percentage of enzyme inhibition calculated as the ratio: 100 × (ODcontrol − ODtreated)/(ODcontrol − ODblank), where the blanks are the wells without AChE. Serial dilutions of the compound or extract were prepared (100, 50, 25, 12.5, 6.25, 3.12, 1.56, and 0.78 μg/mL) and tested according to the same procedure using 10 μL of each solution. IC50 values were graphically determined by plotting the percentage of inhibition against the compound concentrations. Each assay was performed in triplicate and results are expressed as mean values ± S.D.
The inhibition mode of psammaplysene D on AChE was determined while measuring the enzyme activity in presence of an increasing concentration of ATCI (0.024, 0.049, 0.098, 0.19, 0.39, 0.78, 1.57, and 3.15 μM), in absence or presence of 2 μg/mL final concentration of purified psammaplysene D. The inhibition mode, Vmax, and KM values were determined by double-reciprocal Lineweaver and Burk plot analysis (1934) of the data obtained.

AChE = AChE activity in brain and gill extracts of exposed guppies; assay type: in vivo; conditions: guppies after 1 h exposure to 100 µg/mL, N = 5, p < 0.05
Method: Brains and gills of these guppies were extracted and the AChE activity measured on the extracts (Figure 7a,b) [29].
Figure 7 (a) AChE activity, U·mg^−1, after 1 h exposure to 100 µg/mL of Psammalysene D (1). […] Boxplot distribution was made with 5 fish (N = 5).
All the values of AChE activity are represented in a boxplot distribution, because of non-normality of variable distribution (N = 4 or 5). The significant differences between controls and treatments (p-value p < 0.05) were analyzed with non-parametric test of Wilcoxon Mann Whitney. […] All statistical assays were executed using R software (R-3.2.0, The R Foundation for Statistical Computing, Vienna, Austria).

## CN[C@@H](Cc1cc(Br)c(OC)c(Br)c1)C(=O)NCCc1cc(Br)c(OCCCN(C)C)c(Br)c1 [Isoanomoian A]
Eel AChE; ref Olatunji et al. 2014 [31]
  IC50: 70 µM
  mode of AChE inhibition: NCI

## Purealidine Q
Eel AChE; ref Olatunji et al. 2014 [31]
  IC50: 1.2 µM
  mode of AChE inhibition: NCI

## COC1=C(Br)C(O)C2(C=C1Br)CC(C(=O)NCC(O)COc1c(Br)cc(C3CNC(=O)O3)cc1Br)=NO2 (centres unmarked) [Fistularin 1]
Human recombinant AchE
  IC50: 47.5 µM

## CNC(Cc1cc(Br)c(O)c(Br)c1)C(=O)N(C)CCCOc1c(Br)cc(CCN(C)C)cc1Br (centres unmarked) [Anomoian D (7), O-demethyl anomoian A]
[1]
  inhibition at 1 µM: 17 ± 2%
  inhibition at 10 µM: 29 ± 2%

## CN(C)CCc1cc(Br)c(OCCCN(C)C(=O)/C=C/c2cc(Br)c(O)c(Br)c2)c(Br)c1 [Psammaplysene F (2), psammaplysene F]
[1]
  inhibition at 1 µM: 20 ± 0.2%
  inhibition at 10 µM: 73 ± 2%

## CN(C)CCc1cc(Br)c(OCCCN(C)C(=O)C(Cc2cc(Br)c(O)c(Br)c2)N(C)C)c(Br)c1 (centres unmarked) [Anomoian C (6), O-demethyl anomoian B]
[1]
  inhibition at 1 µM: 15 ± 3%
  inhibition at 10 µM: 28 ± 5%

## O=C(O)c1cc(O)c2c(O)ccc(O)c2n1 [5-hydroxy xanthenuric acid (11), 4,5,8-trihydroxyquinoline-2-carboxilic acid]
[1]
  inhibition at 1 µM: 6 ± 0.5%
  inhibition at 10 µM: 25 ± 1%

## CN(C)CCCOc1c(Br)cc(CC(C(=O)N(C)CCCOc2c(Br)cc(CCN(C)C)cc2Br)N(C)C)cc1Br (centres unmarked) [Anomoian F (9), anomoian F]
[1]
  inhibition at 1 µM: 20 ± 0.6%
  inhibition at 10 µM: 100 ± 0.5%

## COC1=C(Br)[C@H](O)[C@@]2(C=C1Br)CC(C(=O)NCCCCCNC(=O)C1=NO[C@]3(C=C(Br)C(OC)=C(Br)[C@@H]3O)C1)=NO2 [Homoaerothionin]
Human recombinant AchE
  IC50: 4.5 µM
  mode of AChE inhibition: CI

## Br.COc1c(Br)cc(C/C(=N\O)C(=O)NCCc2cc(Br)c(OCCCN)c(Br)c2)cc1Br [Aplysamine-4]
Eel AChE; ref Sepcic et al. 2001 [33], read-out: AChE inhibition KI
  Ki: 16 µM
Eel AChE; ref Sepcic et al. 2001 [33]
  mode of AChE inhibition: NCI
Insect recombinant AChE; read-out: AChE inhibition KI
  Ki: 2 µM
Insect recombinant AChE
  mode of AChE inhibition: NCI

## CN(C)CCCOc1c(Br)cc(/C=C/C(=O)N(C)CCCOc2c(Br)cc(CCN(C)C)cc2Br)cc1Br [Psammaplysene D (1), psammaplysene D]
[2]; 100 μg/mL, bathing
  behaviour during acute exposure: totally confused and had uncontrolled mobility
[2]; 100 μg/mL, one hour bathing
  acute toxicity outcome: death
[2]; acute exposure 100 μg/mL
  time to onset of behavioural effects after addition to the tank: 20 min
[3]; A. triostegus juveniles
  behaviour of reef fish juveniles: did not seem to be impacted
[3]
  number of bites on coral pieces per recruit and per hour (in words): loss of appetite from the first day of experiment
[3]; listed as psammaplysene D (1)
  number of bites on coral pieces per recruit and per hour (in words): significantly and readily decreased the number of bites
[1]
  inhibition at 1 µM: 95 ± 0.5%
  inhibition at 10 µM: 100 ± 0.2%
In vitro
  IC50 at 72 h: 0.7 µM
[4]
  feeding behaviour towards food flakes: loss of appetite from the first day of experiment
[4]; listed as psammalysene D (1)
  feeding behaviour towards food flakes: passivity of the fish towards the food flakes
[5]
  IC50: 1.3 µM
[5]; Lineweaver-Burk plot
  mode of AChE inhibition: mixed competitive/non-competitive inhibition
[5]; Lineweaver-Burk, with 2 μg/mL psammaplysene D, decreasing from 0.0036
  Vmax: 0.0007 µmol/min
AChE
  AChE activity in gills (in words): mild but significant decrease

## CNC(Cc1cc(Br)c(OCCCN(C)C)c(Br)c1)C(=O)N(C)CCCOc1c(Br)cc(CCN(C)C)cc1Br (centres unmarked) [Anomoian E (8), anomoian E]
[1]
  inhibition at 1 µM: 6 ± 2%
  inhibition at 10 µM: 82 ± 1%

## CN(C)CCc1cc(Br)c(O)c(Br)c1 [N,N-dimethyldibromotyramine (10), N,N-dimethyldibromotyramine]
[1]
  inhibition at 1 µM: 89 ± 1%
  inhibition at 10 µM: 100 ± 1%

## CN(C)CCc1cc(Br)c(OCCCN(C)C(=O)/C=C\c2cc(Br)c(O)c(Br)c2)c(Br)c1 [Psammaplysene G (3), psammaplysene G]
[1]
  inhibition at 1 µM: 17 ± 1%
  inhibition at 10 µM: 75 ± 0.4%

## Aplysanzine A
Eel AChE; ref Olatunji et al. 2014 [31]
  IC50: 104 µM
  mode of AChE inhibition: NCI
